{"source": "patent US20240165280A1", "about": "“METHODS FOR TREATMENT OF CANCERS” (Fusion Pharmaceuticals Inc., priority 2021, published 2024)", "key": {"[1]": {"tested_on": "HT-29 xenografts", "assay": "Earlier [^177Lu]-3BP-227 therapy study (Study 1), HT-29 xenografts in nude mice", "format": "in vivo"}, "[2]": {"tested_on": "HT-29 xenograft tumors", "assay": "Therapy study of [^177Lu]-3BP-227 and [^225Ac]-3BP-227 in CD-1 Nude mice bearing HT-29 xenograft tumors", "format": "in vivo", "settings": "for tumor growth inhibition relative to controls: single i.v. dose 4.5 mCi per mouse (8,325 MBq/kg), HT-29 xenografts, monitored 34 days", "procedure": "(§1) For therapeutic efficacy studies, single doses of 3,885-8,325 MBq/kg of [^177Lu]-3BP-227 (2,100-4,500 μCO or 1.85-5.55 MBq/kg of [^225Ac]-3BP-227 (1-3 μCO were administered to animals bearing HT29 xenografts (average tumor volume=212±46 mm^3), and tumor growth was monitored for 77 days. Mice in the control group were administered vehicle alone (10% ethanol in PBS). Study endpoints included tumor volume measurement and/or impact to animal health status.\nA therapy efficacy study of [^177Lu]-3BP-227 and [^225Ac]-3BP-227 was conducted in mice comprising the following: • 1. 30 CD-1 Nude mice (5-6 week-old females; Charles River Laboratories) bearing subcutaneous HT-29 (ATCC #HTB-38; colorectal adenocarcinoma) tumor xenografts distributed amongst 5 groups (n=6). There were two groups each treated with [^177Lu]-3BP-227 or [^225Ac]-3BP-227 and 1 control group (below). • 2. Target dose of radioactivity was 2.1 or 4.5 mCi of [^177Lu]-3BP-227 per mouse, or 1 or 3 μCi of [^225Ac]-3BP-227 per mouse, for radiotherapy groups. • 3. Mice in the control group were administered vehicle alone (10% ethanol in PBS). • 4. For all groups, tumor size and mouse weight were monitored for 34-77 days. Relative tumor volume, relative mouse weight, and tumor regression relative to control were also calculated.\nPerform an in vivo therapy study to determine the efficacy of [^177Lu]-3BP-227 and [^225Ac]-3BP-227, for the treatment of subcutaneous HT-29 xenograft tumors in nude mice.\nGroups of CD-1 Nude female mice (five groups; n=6 each, 30 total) will be administered radiolabelled test articles via intravenous injection once.\n[^177Lu]-3BP-227 will be dissolved in PBS containing 10% ethanol and prepared at a concentration of about 13 mCi/mL and about 25 mCi/mL. [^177Lu]-3BP-227 compounds would be administered (in 200 μL) at a dose of 2.1 mCi (about 13 mCi/mL stock) or 4.5 mCi (about 25 mCi/mL stock) to two groups of animals (n=12 total). [^225Ac]-3BP-227 will be dissolved in PBS containing 10% ethanol and prepared at a concentration of 5 μCi/mL and 15 μCi/mL. [^225Ac]-3BP-227 compounds will be administered (in 200 μL) at a dose of 1 μCi (5 μCi/ml stock) or 3 μCi (15 μCi/mL stock) to two groups of animals (n=12 total). […] The length (L) and width (W) of the tumor will be measured three times a week up to day 28, and the tumor volume will be calculated as per Section 13, Data Calculations and Statistical Analysis. […]\n1. Tumor volume is calculated according to the formula: TV=(L×W^2)×0.52, where L is the longest diameter (length) of the tumor and W is the shortest diameter (width) of the tumor. Tumor volume at day n is expressed as relative tumor volume (RTV) according to the following formula: RTV=TVn/TV0, where TVn is the tumor volume at day n, and TV0 is the tumor volume at day 0. […]"}, "[3]": {"tested_on": "293 tumor xenografts", "assay": "Uptake into 293 tumor xenografts, which do not express NTSR1", "format": "in vivo", "settings": "293 tumor xenografts (no NTSR1 expression)", "text": "(§2) The compounds to be evaluated are [^177Lu]-3BP-227 and [^225Ac]-3BP-227, which are the ^177Lu and ^225Ac radiolabelled versions, respectively, of the compound of Formula I (also referred as 3BP-227). NTSR1 is overexpressed in several types of cancer, e.g., pancreatic ductal adenocarcinoma (PDAC), Ewing's sarcoma and prostate cancer, but it is rarely expressed in normal tissues."}, "[4]": {"tested_on": "NTSR1-expressing HT-29 xenograft tumors", "assay": "Uptake and persistence in NTSR1-expressing HT-29 xenograft tumors", "format": "in vivo", "settings": "NTSR1-expressing HT-29 xenograft tumors in Nude mice", "text": "as §2"}, "[5]": {"assay": "Tolerability (mouse weight, health status) in the therapy study", "format": "in vivo, CD-1 Nude mice", "procedure": "as §1\nA therapy efficacy study of [^177Lu]-3BP-227 and [^225Ac]-3BP-227 was conducted in mice comprising the following: • 1. […] Target dose of radioactivity was 2.1 or 4.5 mCi of [^177Lu]-3BP-227 per mouse, or 1 or 3 μCi of [^225Ac]-3BP-227 per mouse, for radiotherapy groups. • 3. […] For all groups, tumor size and mouse weight were monitored for 34-77 days. Relative tumor volume, relative mouse weight, and tumor regression relative to control were also calculated.\n[^177Lu]-3BP-227 will be dissolved in PBS containing 10% ethanol and prepared at a concentration of about 13 mCi/mL and about 25 mCi/mL. […] The length (L) and width (W) of the tumor will be measured three times a week up to day 28, and the tumor volume will be calculated as per Section 13, Data Calculations and Statistical Analysis. […]"}, "[6]": {"assay": "Acute toxicity in mice with [^177Lu]-3BP-227 therapy (earlier studies)", "format": "in vivo", "settings": "earlier [^177Lu]-3BP-227 therapy studies in mice"}, "[7]": {"tested_on": "HT-29 xenografts", "assay": "Earlier [^177Lu]-3BP-227 therapy study (Study 2), HT-29 xenografts", "format": "in vivo, nude mice", "settings": "4.5 mCi per mouse, tumor volume about 450 mm^3 at injection"}}, "note": "Entries after “also recorded” stand apart in the source; their conditions may differ.", "data": [{"smiles": "COc1cccc(OC)c1-c1cc(C(=O)NC2(C(=O)O)C3CC4CC(C3)CC2C4)nn1-c1ccc(C(=O)N(C)CCCN(C)CCCN(C)C(=O)CN2CCN(CC(=O)[O-])CCN(CC(=O)[O-])CCN(CC(=O)[O-])CC2)cc1C(C)C.[177Lu+3]", "note": "(stereo not shown) [[^177Lu]-3BP-227]", "values": [{"measurement": "inhibition of tumor growth", "setting": "[1]; about 2.1 mCi per mouse", "result": "somewhat inhibited tumor growth"}, {"measurement": "suppression of tumor growth", "setting": "[1]; about 4.5 mCi per mouse, tumor volume about 200 mm^3 at injection", "result": "effective as a therapy for suppressing tumor growth"}, {"measurement": "duration of tumor growth suppression", "setting": "[1]; particularly evident at about 4.5 mCi per mouse", "result": "at least 60 days"}, {"measurement": "frequency of significant tumor regrowth", "setting": "[2]; 4.5 mCi [^177Lu]-3BP-227 versus 1 μCi [^225Ac]-3BP-227 group", "result": "significant tumor regrowth was more frequent"}, {"measurement": "duration of tumor growth inhibition relative to controls", "setting": "[2]; 4.5 mCi group, whole monitoring period", "result": 34, "unit": "days"}, {"measurement": "tumor growth inhibition relative to controls", "setting": "[2]", "result": "inhibition in the growth of tumors; also recorded: significant and durable tumor growth inhibition"}, {"measurement": "tumor growth inhibition relative to controls", "setting": "[2]; listed as [^177Lu]3BP-227", "result": "efficacious at suppressing tumor growth"}, {"measurement": "tumor uptake", "setting": "[3]", "result": "minimal uptake"}, {"measurement": "tumor uptake and persistence", "setting": "[4]", "result": "good uptake and persistence"}, {"measurement": "weight gain compared with vehicle control", "setting": "[5]; 2.1 and 4.5 mCi groups, 34 days", "result": "indistinguishable weight gain"}, {"measurement": "treatment-related toxicities", "setting": "[5]; all dose groups of the studies", "result": "no treatment-related toxicities observed"}, {"measurement": "acute toxicity", "setting": "[6]", "result": "no observed acute toxicity"}, {"measurement": "suppression of HT-29 tumor growth", "setting": "[7]", "result": "not efficacious at suppressing HT-29 tumor growth"}]}]}
